Test results: patent publication US20060030616A1, “Anhydride modified cantharidin analogues useful in the treatment of cancer” (priority 1998, published 2006)

Legend:
HT29 cells [1] = test: Checkpoint abrogation after 6 Gy radiation, flow cytometry; type: cell-based, human; settings: 12 h after drug
Method: (§1) The cells are fixed in 70% ethanol and stored at −20° C. until analysis is performed (1-2 weeks). After fixing, the cells are pelleted and incubated in PBS containing propidium iodide ([…]) and RNase A (200 mg/ml) for at least 30 min at room temperature. The samples (2×10^4 events) are analysed using a Becton Dickson FACScan, fluorescence is collected in fluorescence detector 2 (FL2), filter 575/30 nm band pass. Cell cycle distribution is assessed using Cell Quest software (Becton Dickson).
(§2) The ability of the protein phosphatase inhibitors to abrogate the G1 or G2 checkpoint of the cell cycle may be determined by cell cycle analysis using flow cytometry. Briefly, asynchronous cell cultures are harvested 18 h after 6 Gy irradiation and/or 12 h incubation with the protein phosphatase inhibitor. Depending upon the p53 status of the cell line, radiation treatment alone will induce arrest in either G1 and/or G2 phase of the cell cycle.
(§3) If the protein phosphatase inhibitor abrogates the G2 checkpoint then the cells will not arrest in the G2 phase of the cell cycle and the cells will continue through the cell cycle and accumulate in the G1 phase of the cell cycle only. Similarily if the protein phosphatase inhibitors abrogates the G1 checkpoint then the cells will not arrest in the G1 phase of the cell cycle and accumulate in the G2 phase of the cell cycle only. Cell cycle analysis using propidium iodide labelling of DNA has been used extensively in our laboratory to assess the effect of specific anticancer agents that induce S-phase cell cycle arrest and apoptotic cell death (Sakoff, Ackland and Stewart, 1998). Experiments were performed on a Becton Dickinson FACScan and using Cell Quest software.
(§4) The cells were treated with 6 Gy of radiation and then treated with cantharidin 6 h later. The ability to abrogate cell cycle arrest was assessed is 12 h after the addition of the drugs.

HL60 cells [2] = test: as above; type: cell-based, human; settings: 12 h after drug
Method: as §1, §2, §3, §4

HCT116 cells = test: as above; type: cell-based, human; settings: 12 h after drug
Method: as §1, §2, §3, §4

HT29 cells [3] = test: MTT cytotoxicity assay, 72 h; type: cell-based, human; settings: HT29, p53 mt; read-out: IC50 (mean ± SE) after 72 h continuous exposure
How it was run: (§5)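 Absorbance at 540 nm of solubilized MTT formazan measures viable cells after 72 h inhibitor exposure. Cells are plated 24 h ahead to reach exponential growth, with L1210 at 1000 cells/well. IC50 comes from the dose-response of growth between day 0 and day 3.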

HL60 cells [4] = test: MTT cytotoxicity assay, 72 h; type: cell-based, human; settings: HL60, p53 nul; read-out: IC50 (mean ± SE) after 72 h continuous exposure
How it was run: as §5

L1210 cells = test: Checkpoint abrogation after 6 Gy radiation, flow cytometry; type: cell-based, murine; settings: 12 h after drug
Method: as §1, §2, §3, §4

## O=C1OC(O)C2C3CCC(O3)C12 (centres unmarked) [MK-4]
HT29 cells [1]; HT29, 50 μM, 18 h after 6Gy
  Cell Cycle Distribution, G1: 28.9 percentage of total
  Cell Cycle Distribution, G2 + M: 48.4 percentage of total
  Cell Cycle Distribution, S: 16.4 percentage of total
  Cell Cycle Distribution, sub G: 6.8 percentage of total
HT29 cells [1]; HT29, 100 μM, 18 h after 6Gy
  Cell Cycle Distribution, G1: 33.3 percentage of total
  Cell Cycle Distribution, G2 + M: 43.3 percentage of total
  Cell Cycle Distribution, S: 17.2 percentage of total
  Cell Cycle Distribution, sub G: 6.3 percentage of total
HT29 cells [1]; HT29, 250 μM, 18 h after 6Gy
  Cell Cycle Distribution, G1: 35.2 percentage of total
  Cell Cycle Distribution, G2 + M: 36.5 percentage of total
  Cell Cycle Distribution, S: 17.3 percentage of total
  Cell Cycle Distribution, sub G: 10.3 percentage of total
HT29 cells [1]; HT29, 500 μM, 18 h after 6Gy
  Cell Cycle Distribution, G1: 39.4 percentage of total
  Cell Cycle Distribution, G2 + M: 37.7 percentage of total
  Cell Cycle Distribution, S: 19.2 percentage of total
  Cell Cycle Distribution, sub G: 3.9 percentage of total
  Checkpoint remark: G2 abrogation
HT29 cells [1]; HT29, 6 Gy
  Checkpoint abrogation: abrogation of the G2 checkpoint
HL60 cells [2]; HL60, 50 μM, 18 h after 6Gy
  Cell Cycle Distribution, G1: 6.2 percentage of total
  Cell Cycle Distribution, G2 + M: 82.3 percentage of total
  Cell Cycle Distribution, S: 2.8 percentage of total
  Cell Cycle Distribution, sub G: 8.9 percentage of total
HL60 cells [2]; HL60, 100 μM, 18 h after 6Gy
  Cell Cycle Distribution, G1: 6.2 percentage of total
  Cell Cycle Distribution, G2 + M: 80.8 percentage of total
  Cell Cycle Distribution, S: 3.4 percentage of total
  Cell Cycle Distribution, sub G: 9.8 percentage of total
HL60 cells [2]; HL60, 250 μM, 18 h after 6Gy
  Cell Cycle Distribution, G1: 5.8 percentage of total
  Cell Cycle Distribution, G2 + M: 82.2 percentage of total
  Cell Cycle Distribution, S: 3.1 percentage of total
  Cell Cycle Distribution, sub G: 9.3 percentage of total
HL60 cells [2]; HL60, 500 μM, 18 h after 6Gy
  Cell Cycle Distribution, G1: 5.2 percentage of total
  Cell Cycle Distribution, G2 + M: 78.2 percentage of total
  Cell Cycle Distribution, S: 5.4 percentage of total
  Cell Cycle Distribution, sub G: 11.6 percentage of total
  Checkpoint remark: Cell Death
HL60 cells [2]; HL60, 6 Gy
  Checkpoint abrogation: abrogated G1 arrest
HCT116 cells; HCT116, 50 μM, 18 h after 6Gy
  Cell Cycle Distribution, G1: 26.7 percentage of total
  Cell Cycle Distribution, G2 + M: 61.3 percentage of total
  Cell Cycle Distribution, S: 5.8 percentage of total
  Cell Cycle Distribution, sub G: 6.3 percentage of total
HCT116 cells; HCT116, 100 μM, 18 h after 6Gy
  Cell Cycle Distribution, G1: 18.4 percentage of total
  Cell Cycle Distribution, G2 + M: 69.3 percentage of total
  Cell Cycle Distribution, S: 9.7 percentage of total
  Cell Cycle Distribution, sub G: 3.3 percentage of total
HCT116 cells; HCT116, 250 μM, 18 h after 6Gy
  Cell Cycle Distribution, G1: 16.3 percentage of total
  Cell Cycle Distribution, G2 + M: 67.8 percentage of total
  Cell Cycle Distribution, S: 8.2 percentage of total
  Cell Cycle Distribution, sub G: 8.2 percentage of total
HCT116 cells; HCT116, 500 μM, 18 h after 6Gy
  Cell Cycle Distribution, G1: 13.1 percentage of total
  Cell Cycle Distribution, G2 + M: 61.9 percentage of total
  Cell Cycle Distribution, S: 10.6 percentage of total
  Cell Cycle Distribution, sub G: 14.9 percentage of total
  Checkpoint remark: G1 abrogation
HCT116 cells; HCT116, 6 Gy
  Checkpoint abrogation: abrogated G1 arrest
HT29 cells [3]
  IC50: 14 µM
HL60 cells [4]
  IC50: 393 ± 103 µM
L1210 cells; L1210, 50 μM, 18 h after 6Gy
  Cell Cycle Distribution, G1: 21.2 percentage of total
  Cell Cycle Distribution, G2 + M: 50.3 percentage of total
  Cell Cycle Distribution, S: 28.5 percentage of total
  Cell Cycle Distribution, sub G1: 1.8 percentage of total
L1210 cells; L1210, 100 μM, 18 h after 6Gy
  Cell Cycle Distribution, G1: 22.0 percentage of total
  Cell Cycle Distribution, G2 + M: 49.7 percentage of total
  Cell Cycle Distribution, S: 27.4 percentage of total
  Cell Cycle Distribution, sub G1: 2.4 percentage of total
L1210 cells; L1210, 250 μM, 18 h after 6Gy
  Cell Cycle Distribution, G1: 21.2 percentage of total
  Cell Cycle Distribution, G2 + M: 52.7 percentage of total
  Cell Cycle Distribution, S: 24.6 percentage of total
  Cell Cycle Distribution, sub G1: 3.1 percentage of total
L1210 cells; L1210, 500 μM, 18 h after 6Gy
  Cell Cycle Distribution, G1: 18.2 percentage of total
  Cell Cycle Distribution, G2 + M: 61.8 percentage of total
  Cell Cycle Distribution, S: 16.0 percentage of total
  Cell Cycle Distribution, sub G1: 5.0 percentage of total
  Checkpoint remark: G1 abrogation
L1210 cells; L1210, 6 Gy
  Checkpoint abrogation: abrogated G1 arrest
